# Laboratory results published in PMC5833749 (Cell Death & Disease, 2018).
# Values joined by “and” are separate entries in the source; they are usually repeats but may differ in a detail not shown here. Equal values may be shown once. “Also recorded” adds a separate entry of the source. Read-outs that look alike come from different tables or passages of the source.
# How the values were obtained:
# L929sAhFas cells [1] = test: mTNF-induced RIPK1-dependent necroptosis; assay type: cell-based, murine
# Description: (§1) Data represent mean values ±S.E.M., n = 6. […] Data represent mean values ±S.E.M. (g–l).
# (§2) Data were analysed using the Columbus software package (PerkinElmer).
# L929sAhFas cells [2] = test: High-content imaging of cell growth, nuclear area and nuclear roundness (cytokinesis defects); assay type: cell-based, murine; conditions: for Cytokinesis defects (nuclear roundness, nuclear area): 10 µM, 24 h
# Description: as §1, §2
# L929sAhFas cells [3] = test: Cellular screening of Tozasertib analogues for cytokinesis defects and inhibition of necroptosis; assay type: cell-based, murine; conditions: 3 µM, 0.5 h or 24 h pre-treatment
# Description: Next, cells were left unstimulated or stimulated with mTNF (40 ng/mL) + zVAD.fmk (10 µM) for […]. Proliferation, nuclear area and cell death were quantified by staining the cells with propidium iodide (PI) (3 µM) and Hoechst (1 µM) for image analysis with BD pathway. […] Significance was analysed using repeated measurements data analysis. […] Cells were stimulated for 7 h with mTNF and 4 h with mTNF + zVAD.fmk. Data represent mean values ±S.E.M. (n = 2). […] Dose responses were included in the screening (b–c) assay conditions.
# as §2
# hAurora kinase A = target: T1, hAurora kinase A (Homo sapiens, UniProt O14965); test: In vitro ADP-Glo kinase assay; assay type: biochemical; conditions: dose response, Fig. 3b
# T1 construct: purchased Promega V9081
# T1 sequence (O14965 1-403): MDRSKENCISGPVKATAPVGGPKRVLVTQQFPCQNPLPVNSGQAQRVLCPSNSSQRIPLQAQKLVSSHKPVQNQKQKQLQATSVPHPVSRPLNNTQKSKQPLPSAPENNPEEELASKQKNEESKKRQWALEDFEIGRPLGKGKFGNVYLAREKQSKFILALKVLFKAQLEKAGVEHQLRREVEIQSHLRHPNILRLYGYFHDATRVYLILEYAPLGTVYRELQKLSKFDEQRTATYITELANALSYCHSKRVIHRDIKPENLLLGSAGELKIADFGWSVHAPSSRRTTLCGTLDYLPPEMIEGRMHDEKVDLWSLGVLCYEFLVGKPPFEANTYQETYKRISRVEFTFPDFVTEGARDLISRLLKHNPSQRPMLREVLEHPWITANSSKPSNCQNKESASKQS
# Description: (§3) Compounds (concentrations as indicated) were co-incubated with recombinant hRIPK1 (100 nM) (produced in our laboratory), hAurora kinase A (25 nM) or hAurora kinase B (25 nM) (ADP-Glo^TM kinase assay + Aurora A/Aurora B kinase enzyme system, Promega, V9081 and V9181). For hRIPK1, the kinase assay buffer (2×) contains 50 mM HEPES pH 7.5, 30 mM MgCl2, 50 mM NaCl, 0.5 mg/mL BSA, 0.02% CHAPS and 1 mM DTT. For the Aurora kinases, the kinase assay buffer was used from the promega assay (V9081, V9181). Next, the in vitro ADP-Glo^TM kinase assay (Promega, V6930) was used to determine kinase activity. The assay was performed according to the manufacturer’s protocol. The primary kinase reaction was carried out for 4 h at room temperature and a 2:2:1 ratio of kinase reaction volume to ADP-Glo reagent volume to kinase detection reagent volume was used.
# hAurora kinase B = target: T2, hAurora kinase B (Homo sapiens, UniProt Q96GD4); test: In vitro ADP-Glo kinase assay; assay type: biochemical; conditions: dose response, Fig. 3c
# T2 construct: purchased Promega V9181
# Description: as §3
# recombinant hRIPK1 = target: T3, recombinant hRIPK1 (Homo sapiens, UniProt Q13546); test: In vitro ADP-Glo kinase assay; assay type: biochemical; conditions: dose response, Fig. 3a
# T3 construct: made in house
# T3 sequence (Q13546 1-671): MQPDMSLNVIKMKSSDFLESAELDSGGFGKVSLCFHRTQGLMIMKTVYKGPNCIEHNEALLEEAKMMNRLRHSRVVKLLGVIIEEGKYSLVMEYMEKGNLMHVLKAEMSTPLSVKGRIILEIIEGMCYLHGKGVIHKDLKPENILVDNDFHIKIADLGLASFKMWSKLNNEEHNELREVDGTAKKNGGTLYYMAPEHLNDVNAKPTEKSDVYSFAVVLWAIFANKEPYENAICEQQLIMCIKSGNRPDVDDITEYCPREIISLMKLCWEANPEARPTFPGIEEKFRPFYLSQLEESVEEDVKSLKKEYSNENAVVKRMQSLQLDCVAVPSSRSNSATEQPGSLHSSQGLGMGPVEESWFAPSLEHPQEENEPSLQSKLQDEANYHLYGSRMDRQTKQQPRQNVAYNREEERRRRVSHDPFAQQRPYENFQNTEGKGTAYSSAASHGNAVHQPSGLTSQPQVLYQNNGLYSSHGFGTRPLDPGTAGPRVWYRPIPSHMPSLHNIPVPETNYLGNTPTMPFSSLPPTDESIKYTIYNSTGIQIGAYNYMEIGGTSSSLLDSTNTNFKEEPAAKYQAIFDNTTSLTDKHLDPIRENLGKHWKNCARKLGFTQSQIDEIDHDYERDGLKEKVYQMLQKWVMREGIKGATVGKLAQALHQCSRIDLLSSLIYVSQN
# Description: as §3
# L929sAhFas cells [4] = test: mTNF+zVAD.fmk-induced necroptosis (sensitising condition)
# L929sAhFas cells [5] = test: Clonogenic assay (colony-forming capacity); assay type: cell-based, murine
# Description: […]. […] Data represent mean values ±S.E.M., n = 6. […] […]. […] Data represent mean values ±S.E.M. (g–l).
# Next, treatment was removed and 50 cells/condition were seeded. After 10 days, cells were fixed with 4% PFA for 10 min. After fixation, cells were stained with a 0.01% crystal violet solution for 1 h. Cells were washed with PBS, dried overnight and images were taken. Colonies were counted using ImageJ.
# recombinant mRIPK3 = recombinant mRIPK3 (Mus musculus, UniProt Q9QZL0); test: In vitro ADP-Glo kinase assay; assay type: biochemical; conditions: 10 µM; mRIPK3 15 nM
# Description: Supplementary Figure 5. […] An in vitro ADP-Glo kinase assay using recombinant mRIPK3 (15 nM) (A) was performed. […] Data represent mean value ± S.E.M. of 3 independent experiment. One-way ANOVA with Tukey correction for multiple testing has been performed (**** p<0.0001 ).
# L929sAhFas cells [6] = test: Cytotoxicity of the compound alone (% PI-negative cells); assay type: cell-based, murine; conditions: 10 µM or lower, 24 h
# Excerpt: Supplementary Figure 1. […] Data represent mean ± S.E.M. of 3 independent experiment. One-way Anova with Tukey correction for multiple testing has been performed.
# MEF cells = test: RIPK1-dependent apoptosis (hTNF+Tak1i); assay type: cell-based, murine; conditions: 10 µM, pre-treated 1 h, hTNF 20 ng/mL + Tak1i 1 µM
# L929sAhFas cells [7] = test: RIPK1-independent apoptosis by agonistic anti-Fas antibody; assay type: cell-based, murine; conditions: 10 µM, pre-treated 1 h, agonistic anti-Fas antibody 250 ng/mL
# [8] = system: endogenous Aurora A (Aur A) and B (Aur B); test: Immunoblot of autophosphorylation of endogenous Aurora A and B; assay type: cell-based, murine; conditions: 10 µM, 16 h
# Description: Then, a clonogenic assay was performed to determine colony-forming capacity. Quantification was performed using ImageJ. […] Data represent mean values ±S.E.M., n = 6. […] Data represent mean values ±S.E.M. (g–l).
# Antibodies used were anti-phospho-Aurora A (Thr288)/Aurora B (Thr232)/Aurora C (Thr198) (D13A11) (Cell Signaling, #2914, Danvers, MA, USA), anti-tubulin-HRP (abcam, ab21058, Cambridge, UK). After treatments, cells were washed twice with PBS and lysed with 2× Laemmli buffer directly. These samples were used for SDS-PAGE and immunoblotting. Tubulin was used as loading control.
# HT29 cells = test: hTNF+Tak1i+zVAD.fmk-induced necroptosis
# [9] = pre-treated 1 h, mTNF 20 ng/mL 5 h
# [10] = Mus musculus, read-out: Necroptosis IC50, Aurora inhibitor panel, dose-response 10-0.0022 µM, pre-treated 1 h, mTNF 20 ng/mL 5 h, nonlinear regression
# Sequence of recombinant mRIPK3 (Q9QZL0 whole entry): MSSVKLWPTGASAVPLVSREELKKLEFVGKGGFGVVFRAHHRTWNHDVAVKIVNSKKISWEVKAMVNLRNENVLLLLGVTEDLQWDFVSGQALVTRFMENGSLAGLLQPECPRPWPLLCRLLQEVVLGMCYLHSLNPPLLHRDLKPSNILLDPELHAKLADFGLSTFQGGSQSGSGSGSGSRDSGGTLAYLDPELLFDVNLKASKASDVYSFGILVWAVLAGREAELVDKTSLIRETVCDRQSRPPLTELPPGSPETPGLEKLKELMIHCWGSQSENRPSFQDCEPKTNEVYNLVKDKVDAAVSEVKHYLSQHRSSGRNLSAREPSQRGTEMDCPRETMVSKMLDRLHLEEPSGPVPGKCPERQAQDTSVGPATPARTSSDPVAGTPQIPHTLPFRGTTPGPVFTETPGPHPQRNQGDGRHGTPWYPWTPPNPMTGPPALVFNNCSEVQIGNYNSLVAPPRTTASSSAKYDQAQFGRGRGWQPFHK
# T2 sequence (Q96GD4 whole entry): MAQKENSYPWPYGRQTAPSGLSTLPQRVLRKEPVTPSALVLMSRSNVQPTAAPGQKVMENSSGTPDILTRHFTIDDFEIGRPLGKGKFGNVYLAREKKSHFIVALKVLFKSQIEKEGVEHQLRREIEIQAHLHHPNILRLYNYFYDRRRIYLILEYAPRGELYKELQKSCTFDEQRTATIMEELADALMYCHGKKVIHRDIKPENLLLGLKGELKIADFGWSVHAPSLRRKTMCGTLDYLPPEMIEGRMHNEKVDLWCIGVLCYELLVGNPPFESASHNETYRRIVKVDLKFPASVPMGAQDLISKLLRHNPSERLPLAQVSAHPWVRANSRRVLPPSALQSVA
smiles,measurement,setting,value
Cc1csc(-c2nnc(Nc3ccc(Oc4ncccc4-c4ccnc(N)n4)cc3)c3ccccc23)c1 [AMG-900],Inhibition of TNF-induced necroptosis by Aurora kinase inhibitors (in words),L929sAhFas cells [1]; [9],cannot inhibit necroptosis; also recorded: not able to protect
CCN(CCCOc1ccc2c(Nc3cc(CC(=O)Nc4cccc(F)c4)n[nH]3)ncnc2c1)CCOP(=O)(O)O [Barasertib],Inhibition of TNF-induced necroptosis by Aurora kinase inhibitors (in words),L929sAhFas cells [1]; [9],not able to protect
CO[C@@H](C(=O)N1Cc2n[nH]c(NC(=O)c3ccc(N4CCN(C)CC4)cc3)c2C1)c1ccccc1 [Danusertib],IC50,L929sAhFas cells [1]; [10],13900 nM
same,Inhibition of TNF-induced necroptosis by Aurora kinase inhibitors (in words),L929sAhFas cells [1]; [9],not able to protect
CC(C)(C)C(=O)N1N=CC[C@H]1c1ccccc1 [GSK’963],"Cytokinesis defects (nuclear roundness, nuclear area)",L929sAhFas cells [2],did not affect cytokinesis
O=C(O)c1ccc(Nc2ncc3c(n2)-c2ccc(Cl)cc2C(c2c(F)cccc2F)=NC3)cc1 [MLN-8054],Cytokinesis and proliferation in the analogue screening (in words),L929sAhFas cells [3],cytokinesis inhibition
same,Necroptosis in the analogue screening (in words),L929sAhFas cells [3]; mTNF 40 ng/mL + zVAD.fmk 10 µM 3 h,without affecting RIPK1-dependent cell death
"CN1C(=O)NC(Cc2c[nH]c3c(Cl)cccc23)C1=O (centres unmarked) [Nec-1s, Necrostatin-1s]","Cytokinesis defects (nuclear roundness, nuclear area)",L929sAhFas cells [2],does not result in cytokinesis defects
same,IC50,"L929sAhFas cells [1]; Aurora inhibitor panel, dose-response 10-0.0022 µM, pre-treated 1 h, mTNF 20 ng/mL 5 h, nonlinear regression, read-out: Necroptosis IC50",367 nM
same,IC50,"L929sAhFas cells [1]; pre-treatment 1 h, mTNF 20 ng/mL 5 h, Probit analysis, read-out: Necroptosis L929-mTNF IC50",149 nM
same,Inhibition of hAur A kinase activity (in words),hAurora kinase A,only inhibits recombinant hRIPK1
same,Inhibition of hAur B kinase activity (in words),hAurora kinase B,only inhibits recombinant hRIPK1
same,Inhibition of hRIPK1 kinase activity (in words),recombinant hRIPK1,only inhibits recombinant hRIPK1
same,IC50,"L929sAhFas cells [4]; read-out: Necroptosis L929-mTNF+zVAD IC50, pre-treatment 1 h, necroptosis treatment 3 h, Probit analysis",240 nM
O=C(Nc1cccc(Cl)c1)Nc1ncc(CCNc2ncnc3ccsc23)s1 [SNS-314],IC50,L929sAhFas cells [1]; [10],400 nM
same,IC50,"L929sAhFas cells [1]; read-out: Necroptosis IC50, Aurora inhibitor panel, dose-response 10-0.0022 µM, pre-treated 1 h, mTNF 20 ng/mL 5 h, nonlinear regression",399 nM
Cc1cc(Nc2cc(N3CCN(C)CC3)nc(Sc3ccc(NC(=O)C4CC4)cc3)n2)[nH]n1 [Tozasertib],Concentration from which colony formation is impaired,L929sAhFas cells [5]; 24 h treatment,≥ 0.2 µM
same,IC50,"L929sAhFas cells [5]; Mus musculus, 24 h, read-out: Clonogenicity IC50",122 nM
same,Mean nuclear area at highest concentration,"L929sAhFas cells [2]; 48 h, highest concentration",250 µm^2
same,Mean nuclear roundness at highest concentration,"L929sAhFas cells [2]; 48 h, 0 = straight line, 1 = perfect circle",0.80
same,EC50,"L929sAhFas cells [2]; Mus musculus, 48 h, read-out: Nuclear area (values represent EC50), compound treatment 48 h, Probit analysis",554 nM
same,IC50,"L929sAhFas cells [2]; Mus musculus, 48 h, read-out: Nuclear roundness IC50, compound treatment 48 h, Probit analysis",1640 nM
same,EC50,"L929sAhFas cells [2]; Mus musculus, read-out: Cytokinesis EC50 (nuclear area), Aurora inhibitor panel, dose-response 10-0.0022 µM, pre-treated 1 h, mTNF 20 ng/mL 5 h, nonlinear regression",591 nM
same,Protection against TNF-induced RIPK1-dependent necroptosis over time,"L929sAhFas cells [1]; 3 µM, pre-treated 1 h, mTNF 20 ng/mL",protects
same,IC50,"L929sAhFas cells [1]; Mus musculus, L929, read-out: IC50 L929 TNF-induced necroptosis as given in the Discussion, condition not specified",700 nM
same,IC50,"L929sAhFas cells [1]; read-out: Necroptosis L929-mTNF IC50, pre-treatment 1 h, mTNF 20 ng/mL 5 h, Probit analysis",550 nM and 554 nM
same,Inhibition of recombinant mRIPK3 kinase activity,recombinant mRIPK3,does not inhibit; also recorded: not able to inhibit
same,Toxicity of the compound on itself,L929sAhFas cells [6],not cytotoxic; also recorded: not toxic
same,Inhibition of RIPK1-dependent apoptosis,MEF cells,inhibits RIPK1-dependent apoptosis
same,Inhibition of RIPK1-independent (Fas-mediated) apoptosis,L929sAhFas cells [7],no inhibition is observed
same,Autophosphorylation of endogenous Aurora A and B,[8],inhibition of autophosphorylation
same,Protective effect against necroptosis at 10 µM,"HT29 cells; 10 µM, hTNF+Tak1i+zVAD.fmk 16 h",partially lost
same,Protection against necroptosis in HT29 (in words),"HT29 cells; pre-treated 1 h, hTNF+Tak1i+zVAD.fmk 17 h",protect against necroptosis
same,Protective effect against necroptosis at 10 µM,"L929sAhFas cells [4]; 10 µM, mTNF+zVAD.fmk 3 h",partially lost
same,Protection against necroptosis in L929sAhFas (in words),"L929sAhFas cells [4]; pre-treated 1 h, stimulation 3 h, sensitised condition (mTNF+zVAD.fmk) per text",protect against necroptosis
